Reference: patent US8614327B2 (Vertex Pharmaceuticals Incorporated, priority 2004, dated 2013)
pEC50: −log10 of the molar value.

Target: T1, ΔF508-CFTR (Homo sapiens, UniProt P13569, DEL508-508)
T1 construct: expressed in transfected cells
Test: Membrane potential optical (FRET/VIPR) assay, identification of potentiator compounds
Format: cell-based
Details: Table 3, assay not given; for % Activity: relative efficacy
Procedure, shortened: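 NIH3T3 mouse fibroblasts stably expressing ΔF508-CFTR, temperature-corrected 24 h at 27° C., read on VIPR by FRET between CC2-DMPE and DiSBAC2(3). Potentiators identified in a double-addition format, first adding chloride-free (gluconate) medium with or without compound.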

T1 sequence (P13569 with tags, fused parts or gaps DEL508-508): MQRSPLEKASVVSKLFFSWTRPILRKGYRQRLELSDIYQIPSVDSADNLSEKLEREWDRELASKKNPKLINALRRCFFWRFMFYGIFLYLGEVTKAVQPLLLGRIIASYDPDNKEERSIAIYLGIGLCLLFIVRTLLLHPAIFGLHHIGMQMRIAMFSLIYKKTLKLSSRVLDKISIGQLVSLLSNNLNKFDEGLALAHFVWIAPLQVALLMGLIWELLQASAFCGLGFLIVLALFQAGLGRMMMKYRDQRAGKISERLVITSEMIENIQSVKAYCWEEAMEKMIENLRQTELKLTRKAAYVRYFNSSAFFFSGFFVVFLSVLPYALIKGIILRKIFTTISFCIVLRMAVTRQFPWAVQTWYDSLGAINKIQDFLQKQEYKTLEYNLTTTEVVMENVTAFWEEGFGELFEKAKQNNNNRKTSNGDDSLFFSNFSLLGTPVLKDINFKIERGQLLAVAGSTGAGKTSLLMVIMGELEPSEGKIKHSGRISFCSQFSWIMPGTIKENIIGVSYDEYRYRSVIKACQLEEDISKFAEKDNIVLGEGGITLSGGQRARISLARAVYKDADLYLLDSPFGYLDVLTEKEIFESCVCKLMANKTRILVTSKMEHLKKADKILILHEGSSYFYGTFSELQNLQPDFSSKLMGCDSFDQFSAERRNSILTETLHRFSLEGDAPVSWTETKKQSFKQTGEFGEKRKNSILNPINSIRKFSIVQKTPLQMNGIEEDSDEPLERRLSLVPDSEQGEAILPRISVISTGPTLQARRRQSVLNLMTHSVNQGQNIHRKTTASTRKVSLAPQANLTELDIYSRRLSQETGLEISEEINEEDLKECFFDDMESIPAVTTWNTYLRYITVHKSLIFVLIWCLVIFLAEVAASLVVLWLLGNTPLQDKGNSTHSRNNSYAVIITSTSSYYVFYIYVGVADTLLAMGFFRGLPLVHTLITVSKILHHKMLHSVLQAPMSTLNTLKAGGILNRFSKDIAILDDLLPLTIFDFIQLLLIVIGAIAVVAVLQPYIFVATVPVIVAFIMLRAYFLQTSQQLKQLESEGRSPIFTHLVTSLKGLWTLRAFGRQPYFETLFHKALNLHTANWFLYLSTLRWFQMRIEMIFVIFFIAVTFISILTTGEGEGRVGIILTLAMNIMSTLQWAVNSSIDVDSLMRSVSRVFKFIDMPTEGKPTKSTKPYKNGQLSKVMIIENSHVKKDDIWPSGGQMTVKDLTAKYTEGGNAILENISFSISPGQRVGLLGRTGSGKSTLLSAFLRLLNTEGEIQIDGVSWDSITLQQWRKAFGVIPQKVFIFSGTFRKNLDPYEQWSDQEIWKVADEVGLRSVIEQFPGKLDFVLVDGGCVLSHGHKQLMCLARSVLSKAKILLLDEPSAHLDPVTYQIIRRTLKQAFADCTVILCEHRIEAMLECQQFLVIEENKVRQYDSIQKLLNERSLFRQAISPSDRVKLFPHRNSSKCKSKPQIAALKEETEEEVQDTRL

Structure (SMILES) | pEC50 | % Activity
O=C(Nc1ccc(N2CCOCC2)nc1)c1c[nH]c2ccccc2c1=O [Compound 400, N-(6-morpholino-3-pyridyl)-4-oxo-1H-quinoline-3-carboxamide] | 4.22 to 4.60 | + (<25%)
O=C(Nc1ccc2c(c1)OC(F)(F)O2)c1c[nH]c2ccccc2c1=O [Compound 66, N-(2,2-difluorobenzo[1,3]dioxol-5-yl)-4-oxo-1H-quinoline-3-carboxamide] | 4.60 to 5.00 | ++ (between 25% to 100%)
O=C(Nc1ccc2ccccc2n1)c1c[nH]c2ccccc2c1=O [Compound 19, 4-oxo-N-(2-quinolyl)-1H-quinoline-3-carboxamide] | 4.60 to 5.00 | + (<25%)
O=C(Nc1ccc(C(O)(C(F)(F)F)C(F)(F)F)cc1)c1c[nH]c2ccccc2c1=O [Compound 150, 4-oxo-N-[4-[2,2,2-trifluoro-1-hydroxy-1-(trifluoromethyl)ethyl]phenyl]-1H-quinoline-3-carboxamide] | > 5.00 | ++ (between 25% to 100%)
CC1CCN(c2ccccc2NC(=O)c2c[nH]c3ccccc3c2=O)CC1 [Compound 372, N-[2-(4-methyl-1-piperidyl)phenyl]-4-oxo-1H-quinoline-3-carboxamide] | > 5.00 | ++ (between 25% to 100%)
O=C(Nc1ccc2c3c([nH]c2c1)CCCC3)c1c[nH]c2ccccc2c1=O [Compound 244, 4-oxo-N-(6,7,8,9-tetrahydro-5H-carbazol-2-yl)-1H-quinoline-3-carboxamide] | > 5.00 | ++ (between 25% to 100%)
COc1cc(NC(=O)c2c[nH]c3ccccc3c2=O)ccc1C(C)(C)C [Compound 2, N-(3-methoxy-4-tert-butyl-phenyl)-4-oxo-1H-quinoline-3-carboxamide] | > 5.00 | ++ (between 25% to 100%)
CC1(c2ccc(NC(=O)c3c[nH]c4cccc(O)c4c3=O)cc2)COC1 [Compound 529, 5-hydroxy-N-[4-(3-methyloxetan-3-yl)phenyl]-4-oxo-1H-quinoline-3-carboxamide] | > 5.00 | ++ (between 25% to 100%)
O=C(Nc1cccc2c1CCCC2)c1c[nH]c2ccccc2c1=O [Compound 286, 1,4-dihydro-N-(1,2,3,4-tetrahydronaphthalen-5-yl)-4-oxoquinoline-3-carboxamide] | > 5.00 | +++ (>100%)
O=C(Nc1ccc(N2CCC[C@@H]2CO)cc1C(F)(F)F)c1c[nH]c2ccccc2c1=O [Compound 670, (R)-N-(4-(2-(hydroxymethyl)pyrrolidin-1-yl)-2-(trifluoromethyl)phenyl)-4-oxo-1,4-dihydroquinoline-3-carboxamide] | > 5.00 | ++ (between 25% to 100%)

Further lines, results first:

pEC50 | % Activity | Structure (SMILES)
> 5.00 | ++ (between 25% to 100%) | CC(CO)(CO)c1ccc(NC(=O)c2c[nH]c3cccc(O)c3c2=O)cc1 [Compound 493, 5-hydroxy-N-[4-[2-hydroxy-1-(hydroxymethyl)-1-methyl-ethyl]phenyl]-4-oxo-1H-quinoline-3-carboxamide]
> 5.00 | ++ (between 25% to 100%) | COc1ccc(Cl)cc1-c1cc2cc[nH]c2cc1NC(=O)c1c[nH]c2ccccc2c1=O [Compound 1, N-[5-(5-chloro-2-methoxy-phenyl)-1H-indol-6-yl]-4-oxo-1H-quinoline-3-carboxamide]
> 5.00 | ++ (between 25% to 100%) | CC(C)(C)OC(=O)N1CCCc2ccc(NC(=O)c3c[nH]c4ccccc4c3=O)cc21 [Compound 183, 7-[(4-oxo-1H-quinolin-3-yl)carbonylamino]-1,2,3,4-tetrahydroquinoline-1-carboxylic acid tert-butyl ester]
> 5.00 | +++ (>100%) | COc1cc2[nH]cc(C(=O)Nc3cc(O)c(C(C)(C)C)cc3C(C)(C)C)c(=O)c2cc1F [Compound 617, 6-fluoro-N-(5-hydroxy-2,4-ditert-butyl-phenyl)-7-methoxy-4-oxo-1H-quinoline-3-carboxamide]
